Values joined by “and” are separate entries in the source; they are usually repeats but may differ in a detail not shown here. Identical values can stand only once. Like-named read-outs stand apart in the source and are kept apart here.
Key:
T. Albipes adults [1] = conditions: first trial, non-forced bioassay, means of 5 replicates
Description: White-footed ants were collected from a stand of Phoenix roebelenii palms at the University of Florida Fort Lauderdale Research and Education Center (Broward Co., FL). Adult ants and brood were collected from nesting sites in palm thatch between 9 a.m. and 3 p.m., when most of the foragers are in the nests. The thatch was placed in a plastic 100-liter garbage pail through a 28-cm hole cut into the center of its lid. The upper portions of the interior sides of the pail were coated with a petroleum jelly (Vaseline® London, UK) to retard the ants' escape.
Infested thatch material was taken from the garbage pail, placed in the container, covered with 1×15-cm strips of wood and a separator sheet of 3-mm polycarbonate with 2-mm holes. Dripping water from a 2-1 tank suspended over the container forced the ants to leave the thatch and enter nesting tubes (10×75 mm clear polystyrene test tubes) (Fisher Scientific, Pittsburgh, Pa.), filled at the bottom with a small cotton ball soaked with sugar water, and completely covered with aluminum foil.
Nalgene™ reusable plastic utility boxes with lids ([…]) (Fisher Scientific, Pittsburgh, Pa.) were used to hold white-footed ant colonies for laboratory tests (FIG. 4). Nesting tubes with about 200 ants and dozens of brood were placed into each box, held in place with a small amount of Handi-Tak®. Ants were provisioned with water by placing a small cotton ball moistened with approximately 2-ml deionized water in a 41×41×8 mm plastic weighing boat.
Five holes (0.86 mm ID) were drilled into the caps. Vials were filled with 4.5 ml bait solution, inverted, and attached to the sides of the boxes with Handi-Tak® (FIG. 3). Sugar water was fed ad libitum to the ants at all times and supplemented twice weekly by live termites or canned chicken for protein. A felt pad was placed under each vial to catch errant drops and prevent ants from being entrapped in their sticky residue. Ants were allowed to acclimatize in boxes for several weeks. Each day dead ants were removed and replaced with live ants. When ant populations appeared stable, treatments were applied. No ants were added during the experiment.
Fourteen treatments (5 replicates each, assigned randomly) were applied to the ants in boxes. […] The suspension of XR-007 was placed into a plastic weighing boat (0.5 g), and replaced twice a week or when it desiccated. One corner was cut away to allow for easier access by the ants.
Both vials had felt pads under them. Boxes with gels had the gels in weighing boats. The boats were on the left side of the box, and the untreated sugar water vials were on the right side. […] This was accomplished by adding 0.17-ml to panels and distributing the solution evenly with a fine paintbrush previously saturated in solution. One-half g XR-007 and indoxacarb in honey were placed into the bulb of 9.3-ml large-tip opening transfer pipettes (having had 8-cm cut back from the tip, Samco®b, San Fernando, Calif.).
Dead ants were removed and counted daily for the first week, then twice weekly thereafter. At the end of the experiment, all ants still living were killed with ethanol and counted to determine the total number of ants in each box. […] Mean percent mortalities were analyzed by ANOVA (analysis of variance) and general linear model (SAS Institute, 1989 SAS/STAT user's guide, version 6, 4th ed. SAS Institute, Cary, N.C.) and means separated using Student-Newman-Keals test at P<0.05.
Mortality for the first trial was recorded for 51 days.

white-footed ants = experiment: Two-choice, random-order preference tests on exterior walls; type: in vivo, Technomyrmex albipes
Method: Two commercial ready-to-use (RTU) ant baits and several sugar solutions were tested with and without active ingredients, including 10,000 ppm DOT (Uncle Albert's Super Smart Ant Bait®, A Safe Pest Eliminators, Inc., Miami, Fla.) and 10,000 ppm orthoboric acid (Drax Liquidator®, Waterbury Companies, Inc., Waterbury, Conn.). Sugar water solutions tested included: 100,000 ppm, 150,000 ppm, 200,000 ppm, 250,000 ppm, 350,000 ppm, 400,000 ppm, and 500,000 ppm sucrose (Publix Supermarkets, […] and 500,000 ppm fructose (Fisher Scientific, Pittsburgh, Pa.), 250,000 ppm maltose (Fisher Scientific). Four insect bait formulations of the invention (ND 1, ND2, ND3, ND4, see Table II) were also tested against sugars and commercial baits. […] Borax, Los Angeles, Calif.). Glass shell vials (6-ml capacity) with […] plastic caps (Fisher Scientific) were used for bait containers. Vials were modified for use as bait containers by drilling holes (6 mm) in the caps, inserting cotton dental wicks, which minimize bait desiccation and entrapment by ants, adding 4.5-ml solution, and using […]® (Pacer Technology, Rancho Cucamonga, Calif.) adhesive putty to hold the vials on the walls. Each test consisted of 5 bait vial pairs placed in 2 columns (FIG. 1). […] Nine counts of ants on each wick were taken approximately every 30 minutes over 4.5 hours. When the numbers of ants could not be counted visually, digital photographs were taken, and counts were taken from a computer display. Data were analyzed using t-Test and Mann-Whitney Rank Sum Tests at P=0.05.

T. Albipes adults [2] = experiment: Laboratory efficacy test, second trial (non-forced bioassay, 15 treatments); type: in vivo, Technomyrmex albipes; conditions: means of 5 replicates
Method: When ant populations appeared stable, treatments were applied. No ants were added during the experiment.
Surface treatments included 1,200 ppm fipronil (Termidor®& SC), 500 ppm indoxacarb (DuPont, Wilmington, Del.), 500 ppm deltamethrin (DeltaDust®, Aventis Environmental Science), and 600 ppm lambda cyhalothrin (Demand®V CS, Syngenta Crop Protection).
Both vials had felt pads under them. Boxes with gels had the gels in weighing boats.
Mortality for the second trial was recorded for 47 days.

[3] = test 18: 25% Sucrose vs. 25% Maltose, P=0.852
[4] = test 19: 25% Sucrose vs. 25% Glucose, P=0.463
[5] = test 17: 50% Fructose vs. 50% Glucose, P=0.817

CN1COCN(Cc2cnc(Cl)s2)/C1=N\[N+](=O)[O-] [Thiamethoxam 10 ppm, Thiamethoxam]
Mean percent Mortality (+/SD) of T. Albipes adults (T. Albipes adults [1]; 1 day exposure): 4% and 4.44 ± 2.26ab % | Mean percent Mortality (+/SD) of T. Albipes adults (T. Albipes adults [1]; 1 day exposure, listed as Thiamethoxam 1 ppm): 1.66 ± 1.17b % | Mean percent Mortality (+/SD) of T. Albipes adults (T. Albipes adults [1]; 3 days exposure): 18.33 ± 8.49b % | Mean percent Mortality (+/SD) of T. Albipes adults (T. Albipes adults [1]; 3 days exposure, listed as Thiamethoxam 1 ppm): 3.64 ± 2.80cd % | Mean percent Mortality (+/SD) of T. Albipes adults (T. Albipes adults [1]; 7 days exposure): 39% and 38.81 ± 11.13b % | Mean percent Mortality (+/SD) of T. Albipes adults (T. Albipes adults [1]; 7 days exposure, listed as Thiamethoxam 1 ppm): 6.44 ± 4.73e % | Mean percent Mortality (+/SD) of T. Albipes adults (T. Albipes adults [1]; 30 days exposure): 65% and 64.77 ± 15.51a % | Mean percent Mortality (+/SD) of T. Albipes adults (T. Albipes adults [1]; 30 days exposure, listed as Thiamethoxam 1 ppm): 19.73 ± 9.98c % | Mean percent Mortality (+/SD) of T. Albipes adults (T. Albipes adults [1]; 51 days exposure): 84% and 84.40 ± 10.09a % | Mean percent Mortality (+/SD) of T. Albipes adults (T. Albipes adults [1]; 51 days exposure, listed as Thiamethoxam 1 ppm): 44.02 ± 13.73bcd %

OC[C@H]1O[C@@](CO)(O[C@H]2O[C@H](CO)[C@@H](O)[C@H](O)[C@H]2O)[C@@H](O)[C@@H]1O [sucrose]
preference in binary choice test (counts of ants on wicks) (white-footed ants; test 1: 10% Sucrose vs. water, P<0.001): highly preferred | preference in binary choice test (counts of ants on wicks) (white-footed ants; test 3: 25% Sucrose vs. 10% Sucrose, P<0.05): preferred | preference in binary choice test (counts of ants on wicks) (white-footed ants; test 4: 25% Sucrose vs. 25% Fructose, P<0.001): preferred | preference in binary choice test (counts of ants on wicks) (white-footed ants; test 5: 25% Sucrose vs. 15% Sucrose, P<0.05): preferred | preference in binary choice test (counts of ants on wicks) (white-footed ants; test 6: 25% Sucrose vs. 20% Sucrose, P<0.05): preferred | preference in binary choice test (counts of ants on wicks) (white-footed ants; test 7: 40% Sucrose vs. ND1, P=0.002): preferred | preference in binary choice test (counts of ants on wicks) (white-footed ants; test 13: 25% Sucrose vs. Uncle Albert's Super Smart Ant Bait (no active ingredient), P=0.458): no significant preferences | preference in binary choice test (counts of ants on wicks) (white-footed ants; test 15: 25% Sucrose vs. 50% Sucrose, P=0.112): no significant preference | preference in binary choice test (counts of ants on wicks) (white-footed ants; [3]): no significant preferences | preference in binary choice test (counts of ants on wicks) (white-footed ants; [4]): no significant preferences

O=[N+]([O-])NC1=NCCN1Cc1ccc(Cl)nc1 [Imidacloprid]
Mean percent Mortality (+/SD) of T. Albipes adults (T. Albipes adults [1]; 1 day exposure): 5% and 4.92 ± 4.02ab % | Mean percent Mortality (+/SD) of T. Albipes adults (T. Albipes adults [1]; 7 days exposure): 29.84 ± 10.63bc % | Mean percent Mortality (+/SD) of T. Albipes adults (T. Albipes adults [1]; 7 days exposure, listed as Irnidacloprid): 30% | Mean percent Mortality (+/SD) of T. Albipes adults (T. Albipes adults [1]; 30 days exposure): 79% and 78.55 ± 4.83a % | Mean percent Mortality (+/SD) of T. Albipes adults (T. Albipes adults [1]; 51 days exposure): 91% and 90.86 ± 5.43a %

O=C(CO)[C@@H](O)[C@H](O)[C@H](O)CO [fructose]
preference in binary choice test (counts of ants on wicks) (white-footed ants; test 2: 25% Fructose vs. 25% Maltose, P=0.033): preferred | preference in binary choice test (counts of ants on wicks) (white-footed ants; test 14: 25% Fructose vs. Drax Liquidator (no active ingredient), P=0.580): no significant preferences | preference in binary choice test (counts of ants on wicks) (white-footed ants; test 16: 25% Fructose vs. Uncle Albert's Super Smart Ant Bait (no active ingredient), P 0.057): no significant preferences | preference in binary choice test (counts of ants on wicks) (white-footed ants; [5]): no significant preferences

N#Cc1nn(-c2c(Cl)cc(C(F)(F)F)cc2Cl)c(N)c1[S+]([O-])C(F)(F)F (stereo not drawn) [Fipronil, fipronil]
Mean percent Mortality (+/SD) of T. Albipes adults (T. Albipes adults [1]; 1 day exposure): 0.98 ± 0.70b % | Mean percent Mortality (+/SD) of T. Albipes adults (T. Albipes adults [1]; 3 days exposure): 3.46 ± 1.38cd % | Mean percent Mortality (+/SD) of T. Albipes adults (T. Albipes adults [1]; 7 days exposure): 6.76 ± 2.25e % | Mean percent Mortality (+/SD) of T. Albipes adults (T. Albipes adults [1]; 30 days exposure): 27.88 ± 5.89bc % | Mean percent Mortality (+/SD) of T. Albipes adults (T. Albipes adults [1]; 51 days exposure): 53.76 ± 10.84b %

O.O.O.O.O=BOB1OB(OB=O)OB2OB([O-])OB([O-])OB(O1)O2.[Na+].[Na+] [DOT, disodium octaborate tetrahydrate]
preference in binary choice test (counts of ants on wicks) (white-footed ants; tests 24-30: 25% Sucrose vs. 25% Sucrose + 1% to 7% DOT in 1% increments, P=0.218 to 0.916): no observed preferences

OC[C@H]1O[C@H](O[C@H]2[C@H](O)[C@@H](O)C(O)O[C@@H]2CO)[C@H](O)[C@@H](O)[C@@H]1O (mixture of isomers) [maltose]
preference in binary choice test (counts of ants on wicks) (white-footed ants; [3]): no significant preferences

spinosad
Mean percent Mortality (+/SD) of T. Albipes adults (T. Albipes adults [1]; 1 day exposure): 1.01 ± 0.87b % | Mean percent Mortality (+/SD) of T. Albipes adults (T. Albipes adults [1]; 3 days exposure): 2.02 ± 0.83d % | Mean percent Mortality (+/SD) of T. Albipes adults (T. Albipes adults [1]; 7 days exposure): 3.78 ± 1.85e % | Mean percent Mortality (+/SD) of T. Albipes adults (T. Albipes adults [1]; 30 days exposure): 16.15 ± 3.78c % | Mean percent Mortality (+/SD) of T. Albipes adults (T. Albipes adults [1]; 51 days exposure): 34.51 ± 2.42cd %

O=C[C@H](O)[C@@H](O)[C@H](O)[C@H](O)CO [glucose]
preference in binary choice test (counts of ants on wicks) (white-footed ants; [5]): no significant preferences | preference in binary choice test (counts of ants on wicks) (white-footed ants; [4]): no significant preferences

COC(=O)N(C(=O)N1CO[C@@]2(C(=O)OC)Cc3cc(Cl)ccc3C2=N1)c1ccc(OC(F)(F)F)cc1 [DPX surface, indoxacarb]
Mean % mortality (+/SD) of T. albipes adults (T. Albipes adults [2]; 1 day exposure): 2.19 ± 2.42bcd % | Mean % mortality (+/SD) of T. albipes adults (T. Albipes adults [2]; 2 days exposure): 2.56 ± 2.51c % | Mean % mortality (+/SD) of T. albipes adults (T. Albipes adults [2]; 8 days exposure): 5.61 ± 4.96c % | Mean % mortality (+/SD) of T. albipes adults (T. Albipes adults [2]; 29 days exposure): 16.59 ± 12.72de % | Mean % mortality (+/SD) of T. albipes adults (T. Albipes adults [2]; 47 days exposure): 27.87 ± 14.59e %
